Patent US11512054B2, “Pesticidal compounds” (BASF SE, priority 2017, dated 2022)

How the values were obtained:
Assay type in all cases: in vivo
[1] = system: yellow fever mosquito (Aedes aegypti); experiment: whole plant or invertebrate; details: 48 h, larval mortality visually assessed after 2 days, read-out: mortality in comparison with untreated controls
Protocol: For evaluating control of yellow fever mosquito (Aedes aegypti) the test unit consisted of 96-well-microtiter plates containing 200 μl of tap water per well and 5-15 freshly hatched A. aegypti larvae.
The active compounds or mixtures were formulated using a solution containing 75% (v/v) water and 25% (v/v) DMSO. Different concentrations of formulated compounds or mixtures were sprayed onto the insect diet at 2.5 μl, using a custom built micro atomizer, at two replications. For experimental mixtures in these tests identical volumes of both mixing partners at the desired concentrations respectively, were mixed together.
After application, microtiter plates were incubated at 28±1° C., 80±5% RH for 2 days. Larval mortality was then visually assessed.

[2] = system: Orchid Thrips (Dichromothrips corbetti); experiment: Action on orchid thrips, floral-immersion technique; details: adult thrips, 72 hours after treatment, read-out: mortality in comparison with untreated controls
Protocol: Dichromothrips corbetti adults used for bioassay were obtained from a colony maintained continuously under laboratory conditions. For testing purposes, the test compound is diluted in a 1:1 mixture of acetone:water (vol:vol), plus Kinetic® HV at a rate of 0.01% v/v.
Thrips potency of each compound was evaluated by using a floral-immersion technique. All petals of individual, intact orchid flowers were dipped into treatment solution and allowed to dry in Petri dishes. Treated petals were placed into individual re-sealable plastic along with about 20 adult thrips. All test arenas were held under continuous light and a temperature of about 28° C. for duration of the assay. After 3 days, the numbers of live thrips were counted on each petal. The percent mortality was recorded 72 hours after treatment.

[3] = system: boll weevil (Anthonomus grandis); experiment: Action on boll weevil, eggs on insect diet in 96-well microtiter plates; details: 120 h, egg and larval mortality after 5 days, read-out: mortality in comparison with untreated controls
Protocol: For evaluating control of boll weevil (Anthonomus grandis) the test unit consisted of 96-well-microtiter plates containing an insect diet and 5-10 A. grandis eggs.
The compounds were formulated using a solution containing 75% (v/v) water and 25% (v/v) DMSO. Different concentrations of formulated compounds were sprayed onto the insect diet at 5 μl, using a custom built micro atomizer, at two replications.
After application, microtiter plates were incubated at about 25+1° C. and about 75+5% relative humidity for 5 days. Egg and larval mortality was then visually assessed.

[4] = system: Silverleaf Whitefly (Bemisia argentifoli) (Adults); experiment: Action on silverleaf whitefly adults, sprayed cotton plants; details: Bemisia argentifolii, 72 h, 3 days after treatment, read-out: mortality in comparison with untreated controls
Protocol: (§1) The active compounds were formulated by a Tecan liquid handler in 100% cyclohexanone as a 10,000 ppm solution supplied in tubes. The 10,000 ppm solution was serially diluted in 100% cyclohexanone to make interim solutions. These served as stock solutions for which final dilutions were made by the Tecan in 50% acetone:50% water (v/v) into 5 or 10 ml glass vials. A nonionic surfactant (Kinetic®) was included in the solution at a volume of 0.01% (v/v). The vials were then inserted into an automated electrostatic sprayer equipped with an atomizing nozzle for application to plants/insects.
Cotton plants at the cotyledon stage (one plant per pot) were sprayed by an automated electrostatic plant sprayer equipped with an atomizing spray nozzle. The plants were dried in the sprayer fume hood and then removed from the sprayer. Each pot was placed into a plastic cup and about 10 to 12 whitefly adults (approximately 3-5 days old) were introduced. The insects were collected using an aspirator and a nontoxic Tygon® tubing connected to a barrier pipette tip. The tip, containing the collected insects, was then gently inserted into the soil containing the treated plant, allowing insects to crawl out of the tip to reach the foliage for feeding. Cups were covered with a reusable screened lid. Test plants were maintained in a growth room at about 25° C. and about 20-40% relative humidity for 3 days, avoiding direct exposure to fluorescent light (24 hour photoperiod) to prevent trapping of heat inside the cup. Mortality was assessed 3 days after treatment, compared to untreated control plants.

[5] = system: tobacco budworm (Heliothis virescens); experiment: Action on tobacco budworm, eggs on insect diet in 96-well microtiter plates; details: 120 h, egg and larval mortality after 5 days, read-out: mortality in comparison with untreated controls
Protocol: For evaluating control of tobacco budworm (Heliothis virescens) the test unit consisted of 96-well-microtiter plates containing an insect diet and 15-25 H. virescens eggs.
The compounds were formulated using a solution containing 75% v/v water and 25% v/v DMSO. Different concentrations of formulated compounds were sprayed onto the insect diet at 10 μl, using a custom built micro atomizer, at two replications.
After application, microtiter plates were incubated at about 28+1° C. and about 80+5% relative humidity for 5 days. Egg and larval mortality was then visually assessed.

[6] = system: Diamond Back Moth (Plutella xylostella); experiment: Action on diamond back moth, cabbage leaf dip; details: foliar, 3rd instar larvae, 72 hours after treatment, read-out: mortality in comparison with untreated controls
Protocol: The active compound is dissolved at the desired concentration in a mixture of 1:1 (v/v) distilled water:acetone. Surfactant (Kinetic® HV) is added at a rate of 0.01% (v/v). The test solution is prepared at the day of use.
Leaves of cabbage were dipped in test solution and air-dried. Treated leaves were placed in petri dishes lined with moist filter paper and inoculated with ten 3rd instar larvae. Mortality was recorded 72 hours after treatment. Feeding damages were also recorded using a scale of 0-100%.

[7] = system: Southern Armyworm (Spodoptera eridania), 2nd Instar Larvae; experiment: Action on southern armyworm, sprayed lima bean plants; details: 96 h, 2nd instar larvae on lima bean, 4 days after treatment, read-out: mortality in comparison with untreated controls
Protocol: as §1, with “into 10” for “into 5”, “or 20” for “or 10”
Lima bean plants (variety Sieva) were grown 2 plants to a pot and selected for treatment at the 1st true leaf stage. Test solutions were sprayed onto the foliage by an automated electrostatic plant sprayer equipped with an atomizing spray nozzle. The plants were dried in the sprayer fume hood and then removed from the sprayer. Each pot was placed into perforated plastic bags with a zip closure. About 10 to 11 armyworm larvae were placed into the bag and the bags zipped closed. Test plants were maintained in a growth room at about 25° C. and about 20-40% relative humidity for 4 days, avoiding direct exposure to fluorescent light (24 hour photoperiod) to prevent trapping of heat inside the bags. Mortality and reduced feeding were assessed 4 days after treatment, compared to untreated control plants.

SMILES | mortality at 800 ppm [1] [%] | mortality at 500 ppm [2] [%] | mortality at 800 ppm [3] [%] | mortality at 300 ppm [4] [%] | mortality at 800 ppm [5] [%] | mortality at 500 ppm [6] [%] | mortality at 300 ppm [7] [%]
CC(C)c1ccccc1NC(=S)N/N=C/c1ccc2c(C(=N)Nc3ccc(OC(F)(F)F)cc3)nn(C)c2c1 [Example C-1, 1-(2-isopropylphenyl)-3-[(E)-[1-methyl-3-[N-[4(trifluoromethoxy)phenyl]carbamimidoyl]indazol-6-yl]methyleneamino]thiourea] | ≥ 50 | ≥ 75 | ≥ 75 | ≥ 75 | ≥ 75 | ≥ 75 | ≥ 75
CC(C)c1ccccc1N1C(=O)CS/C1=N/N=C/c1ccc2c(C(=N)Nc3ccc(OC(F)(F)F)cc3)nn(C)c2c1 [Example C-2, 6-[(E)-[(E)-[3-(2-isopropylphenyl)-4-oxo-thiazolidin-2-ylidene]hydrazono]methyl]-1-methyl-N-[4-(trifluoromethoxy)phenyl]indazole-3-carboxamidine] | ≥ 50 | ≥ 75 | ≥ 75 | ≥ 75 | ≥ 75 | ≥ 75 | ≥ 75
CC(C)c1ccccc1/N=C1\SCC(=O)N1/N=C/c1ccc2c(C(N)=Nc3ccc(OC(F)(F)F)cc3)nsc2c1 [Example C-28, 6-[(E)-[(2Z)-2-(2-isopropylphenyl)imino-4-oxo-thiazolidin-3-yl]iminomethyl]-N′-[4-(trifluoromethoxy)phenyl]-1,2-benzothiazole-3-carboxamidine] | ≥ 50 | ≥ 75 | ≥ 75 | ≥ 75 | ≥ 75 | ≥ 75 | ≥ 75
CSC(=N/N=C/c1ccc2c(C(=N)Nc3ccc(OC(F)(F)F)cc3)nn(C)c2c1)Nc1ccccc1C(C)C [Example C-35, 1-(2-isopropylphenyl)-2-methyl-3-[(E)-[1-methyl-3-[N-[4-(trifluoromethoxy)phenyl]carbamimidoyl]indazol-6-yl]methyleneamino]isothiourea] | ≥ 50 | ≥ 75 | ≥ 75 | ≥ 75 | ≥ 75 | ≥ 75 | ≥ 75
CC(C)c1ccccc1NC(=S)N/N=C/c1ccc2c(NC(=N)c3ccc(OC(F)(F)F)cc3)nn(C)c2c1 [Example C-38, 1-(2-isopropylphenyl)-3-[(E)-[1-methyl-3-[[4-(trifluoromethoxy)benzenecarboximidoyl]amino]indazol-6-yl]methyleneamino]thiourea] | ≥ 50 | ≥ 75 | ≥ 75 | ≥ 75 | ≥ 75 | ≥ 75 | ≥ 75
CC(C)c1ccccc1N1C(=O)CS/C1=N\N=C\c1ccc2c(NC(=N)c3ccc(OC(F)(F)F)cc3)nn(C)c2c1 [Example C-39, N-[6-[(E)-[(Z)-[3-(2-isopropylphenyl)-4-oxo-thiazolidin-2-ylidene]hydrazono]methyl]-1-methyl-indazol-3-yl]-4-(trifluoromethoxy)benzamidine] | ≥ 50 | ≥ 75 | ≥ 75 | ≥ 75 | ≥ 75 | ≥ 75 | ≥ 75
